Data set [1] can be described thus: physchem. Format: physicochemical. On the procedure:
The half-life of the compounds was measured in PBS (pH 6.5), simulated gastric fluid (SGF) with pepsin, and SGF without pepsin.

A short description of data set [2]: physchem. Format: physicochemical. The following applies: FaSSIF, RT, 30 mM DMSO stock, value close to or above 300 μM may mean solubility at or above 300 μM. On the procedure: Solubility measurements were taken according to the steps as followed:
2. Preparation of Stock Solution: The stock solution of test compounds was prepared in dimethyl sulfoxide (DMSO) at the concentration of 30 mM. The stock solution of control compound was prepared in DMSO at the concentration of 30 mM. Diclofenac sodium was used as positive control in the assay.
3. Procedures for Solubility Determination: 10 μL stock solution of each compound was placed in order into their proper 96-well rack, followed by adding 990 μL of FaSSIF into each vial of the cap-less Solubility Sample plate. This study was performed in duplicate. One stir stick was added to each vial and then vials were sealed using a molded PTDE/SIL 96-Well Plate Cover. The Solubility Sample plate was transferred to the Thermomixer Comfort plate shaker and incubated at RT for 2 hours with shaking at 1100 rpm. After 2 hours incubation, stir sticks were removed using a big magnet and all samples from the Solubility Sample plate were transferred into the filter plate. All the samples were filtered by using the Vacuum Manifold. An aliquot of 10 μL of the filtered samples were diluted with 980 μL of methanol and 10 μL of DMSO. The dilution factor might be changed according to the solubility value and the LC/MS signal response.
5. Sample Analysis: Samples were analyzed by LC-MS/MS.
[formula] • with DF as the dilution factor.

Another data set is described as follows: in vitro. The format is in vitro ADME. The following applies: for Remaining Percentage / remaining at 0.25 h / remaining at 0.5 h / remaining at 1 h / remaining at 2 h: mouse plasma; for Remaining Percentage: 0 min; for remaining at 0.25 h: 15 min; for remaining at 0.25 h / remaining at 0.5 h / remaining at 1 h / remaining at 2 h: read-out: Remaining Percentage; for remaining at 0.5 h: 30 min; for remaining at 1 h: 60 min; for remaining at 2 h: 120 min; for half-life: mouse, plasma.

The next data set relates to serotonin receptors. The following applies: cited from earlier work.
The mark [3] stands for this setting: PBS (pH 6.5), 30 min, read-out: Remaining Percentage.
Where [4] appears, read: PBS (pH 6.5), 60 min, read-out: Remaining Percentage.
The mark [5] stands for this setting: PBS (pH 6.5), 120 min, read-out: Remaining Percentage.
The mark [6] stands for this setting: PBS (pH 6.5), 240 min, read-out: Remaining Percentage.
[7] abbreviates: PBS (pH 6.5), SGF with pepsin, SGF without pepsin.
The mark [8] stands for this setting: SGF with pepsin, 30 min, read-out: Remaining Percentage.
Where [9] appears, read: SGF with pepsin, 60 min, read-out: Remaining Percentage.
Setting [10] is: SGF with pepsin, 120 min, read-out: Remaining Percentage.
[11] abbreviates: SGF with pepsin, 240 min, read-out: Remaining Percentage.
Setting [12] is: SGF without pepsin, 30 min, read-out: Remaining Percentage.
[13] abbreviates: SGF without pepsin, 60 min, read-out: Remaining Percentage.
Setting [14] is: SGF without pepsin, 120 min, read-out: Remaining Percentage.
Setting [15] is: SGF without pepsin, 240 min, read-out: Remaining Percentage.
The mark [16] stands for this setting: SGF without pepsin, if calculated T1/2 < 0, reported as 9999 min, read-out: T1/2.
Where [17] appears, read: only time points within the initial rate used where fast then slow disappearance, read-out: T1/2.
Where [18] appears, read: text statement of Table 4 value, read-out: half-life in mouse plasma.
Setting [19] is: SGF with pepsin, if calculated T1/2 < 0, reported as 9999 min, read-out: T1/2.

Molecules are shown by their SMILES. ≈ marks a conversion by molar mass, not a printed value. Like-named read-outs stand apart in the source and are kept apart here.

As a reminder, the solubility (kinetic) is solubility judged after dilution from a stock solution rather than from solid.

In the case of `O=C(O)CCCc1ccc(N(CCCl)CCCl)cc1` [Chlorambucil, reference compound], the “Remaining Percentage” value in “physchem [1]” (pH 6.5) is 100.00%. Moreover, in “physchem [1]” (pbs, pH 6.5), the half-life is 0.694 h, the amount remaining at 0.5 h was determined as 59.4%, the share remaining at 1 h turned out to be 37.1% and the amount remaining at 2 h stood at 13.6%. Besides, the amount remaining at 4 h in the data set “physchem [1]” (pbs, pH 6.5) stood at 1.83%.
Consider `CN(C)C(=O)OC[N+](C)(C)CCc1c[nH]c2ccccc12` [Compound 1, N-(((dimethylcarbamoyl)oxy)methyl)-2-(1H-indol-3-yl)-N,N-dimethylethan-1-aminium], for which, in the data set “physchem [2]”, the solubility (kinetic) at 2 h came to 290 µM. The “Remaining Percentage” value in “physchem [1]” (PBS (pH 6.5), 0 min) was determined as 100.00%; in the data set “physchem [1]” (SGF with pepsin, 0 min) it was 100.00%; in “physchem [1]” (SGF without pepsin, 0 min), 100.00%; in “in vitro”, 100.00%. The amount remaining at 0.5 h in “physchem [1]” (setting [3]) stood at 97.7%; in “physchem [1]” (setting [8]), 101%; in “physchem [1]” (setting [12]), 105%; in “in vitro”, 92.6%. Also, the share remaining at 1 h in “physchem [1]” (setting [4]) worked out at 108%; in the data set “physchem [1]” (setting [9]) it was 100%; in “physchem [1]” (setting [13]), 100%; in “in vitro” it was 90.2%. For the same molecule, the fraction remaining at 2 h was determined as 107% in the data set “physchem [1]” (setting [5]), 97.2% in “physchem [1]” (setting [10]), 104% in “physchem [1]” (setting [14]) and 58.3% in the data set “in vitro”. Further, the share remaining at 4 h in the data set “physchem [1]” (setting [6]) was determined as 108%; in “physchem [1]” (setting [11]) it was 108%; in the data set “physchem [1]” (setting [15]) it was 100%. The “Stability in the environment of a stomach and in the presence of pepsin” value in the data set “physchem [1]” (setting [7]) is on record as “does not degrade in the environment of a stomach nor in the presence of pepsin”. Further, the half-life in the data set “physchem [1]” (setting [16]) was 261 h; in the data set “in vitro” (setting [17]) it was 156 min; in the data set “in vitro” (setting [18]) it was 155 min. Also, in “in vitro”, the amount remaining at 0.25 h was found to be 97.5%.
Take `CC(C)(C)C(=O)OC[N+](C)(C)CCc1c[nH]c2ccccc12` [Compound 2, 2-(1H-indol-3-y1)-N,N-dimethy1-N-((pivaloyloxy)methyl)ethan-1-aminium]: the solubility (kinetic) at 2 h in the data set “physchem [2]” was determined as 314 µM. Further, the “Remaining Percentage” value came to 100.00% in the data set “physchem [1]” (PBS (pH 6.5), 0 min); 100.00% in “physchem [1]” (SGF with pepsin, 0 min); 100.00% in “physchem [1]” (SGF without pepsin, 0 min); 100.00% in the data set “in vitro”. The share remaining at 0.5 h in the data set “physchem [1]” (setting [3]) came out at 97.4%; in “physchem [1]” (setting [8]), 94.3%; in “physchem [1]” (setting [12]), 90.7%; in the data set “in vitro”, 7.66%. Further, the amount remaining at 1 h in “physchem [1]” (setting [4]) came out at 101%; in “physchem [1]” (setting [9]), 104%; in “physchem [1]” (setting [13]), 97.3%; in the data set “in vitro”, 1.13%. Besides, the amount remaining at 2 h in “physchem [1]” (setting [5]) stood at 98.3%; in the data set “physchem [1]” (setting [10]) it was 96.6%; in “physchem [1]” (setting [14]), 104%; in “in vitro” it was 0%. Besides, the share remaining at 4 h in “physchem [1]” (setting [6]) was determined as 95.3%; in the data set “physchem [1]” (setting [11]), 96.1%; in “physchem [1]” (setting [15]), 104%. Also, the “Stability in the environment of a stomach and in the presence of pepsin” value in “physchem [1]” (setting [7]) is recorded as “does not degrade in the environment of a stomach nor in the presence of pepsin”. Moreover, the half-life is 63.2 h in the data set “physchem [1]” (PBS (pH 6.5), if calculated T1/2 < 0, reported as 9999 min, read-out: T1/2); 88.8 h in the data set “physchem [1]” (setting [19]); 9.41 min in the data set “in vitro” (setting [17]); 9.4 min in “in vitro” (setting [18]). Also, the share remaining at 0.25 h in “in vitro” was determined as 24.4%.
With `COc1ccc2[nH]cc(CCN(C)C)c2c1` [Compound 5-MeO-DMT, 5-methoxy-DMT], in the data set with serotonin receptors (bind select serotonin receptors in the active state), the “activity at select serotonin receptors” value was “agonists or partial agonists”.
Turning to `CN(C)CCc1c[nH]c2ccccc12` [DMT, N, N-dimethyltryptamine], the “activity at select serotonin receptors” value in the data set with serotonin receptors is “agonists or partial agonists”.
In turn, `O=C(O)Cc1ccccc1Nc1c(Cl)cccc1Cl` [Diclofenac, reference compound] had a solubility (kinetic) at 2 h in “physchem [2]” of 276 µM (≈ 81.7 µg/mL).
As to `CC[C@H]1OC(=O)[C@H](C)[C@@H](O[C@H]2C[C@@](C)(OC)[C@@H](O)[C@H](C)O2)[C@H](C)[C@@H](O[C@@H]2O[C@H](C)C[C@H](N(C)C)[C@H]2O)[C@](C)(O)C[C@@H](C)C(=O)[C@H](C)[C@@H](O)[C@]1(C)O` [Erythromycin, reference compound], the “Remaining Percentage” value in the data set “physchem [1]” (SGF with pepsin, 0 min) is reported as 100.00%; in the data set “physchem [1]” (SGF without pepsin, 0 min), 100.00%. Besides, the fraction remaining at 0.5 h in the data set “physchem [1]” (setting [8]) turned out to be 52.6%; in the data set “physchem [1]” (setting [12]), 54.5%. Also, the amount remaining at 1 h in the data set “physchem [1]” (setting [9]) is 30.5%; in “physchem [1]” (setting [13]), 29.1%. Also, the share remaining at 2 h is 9.74% in the data set “physchem [1]” (setting [10]) and 9.44% in “physchem [1]” (setting [14]). Moreover, the share remaining at 4 h in “physchem [1]” (setting [11]) was 1%; in the data set “physchem [1]” (setting [15]) it was 1.05%. In addition, the half-life in the data set “physchem [1]” (setting [19]) is 0.6 h; in the data set “physchem [1]” (setting [16]) it was 0.61 h.
For `CC(C)[N+](C)(CCOC(=O)C1c2ccccc2Oc2ccccc21)C(C)C` [Propantheline, reference compound], in the data set “in vitro”, the “Remaining Percentage” value is given as 100.00%, the share remaining at 0.25 h is 86%, the amount remaining at 0.5 h stood at 67.2% and the fraction remaining at 1 h was found to be 35%. The share remaining at 2 h in the data set “in vitro” is 8.48%. The half-life in “in vitro” (setting [17]) turned out to be 32.8 min.
As to `CN(C)CCc1c[nH]c2cccc(O)c12` [psilocin, 4-hydroxy-DMT], the “activity at select serotonin receptors” value in the data set on serotonin receptors was “agonists or partial agonists”.
For `CN(C)CCc1c[nH]c2cccc(OP(=O)(O)O)c12` [psilocybin], the “activity at select serotonin receptors” value in the data set on serotonin receptors is given as “agonists or partial agonists”.

Source of the values: US20260297029A1, “ALKOXY AND CARBAMOYL QUATERNARY AMINE SALTS AS PRODRUGS OF TRYPTAMINES” (priority 2023, published 2026).
